Reference: patent publication US20190256498A1, “CRYSTALLINE FORMS OF DACLATASVIR DIHYDROCHLORIDE” (LUPIN LIMITED, priority 2016, published 2019)
Counter-ions that a name gives are not always drawn.

Key:
[1] = Storage stability of crystalline form L2 (temperature/RH conditions, HPLC purity); type: physicochemical
[2] = neat crystalline dihydrochloride salts N1 and N2, screening studies; cited from earlier work
[3] = Polymorphic stability of crystalline forms over a period of time; type: physicochemical

SMILES: COC(=O)N[C@H](C(=O)N1CCC[C@H]1c1nc(-c2ccc(-c3ccc(-c4c[nH]c([C@@H]5CCCN5C(=O)[C@@H](NC(=O)OC)C(C)C)n4)cc3)cc2)c[nH]1)C(C)C [form L2, N,N′-[[1,1′-biphenyl]-4,4′-diylbis[1H-imidazole-5,2-diyl-(2S)-2,1-pyrrolidinediyl[(1S)-1-(1-methylethyl)-2-oxo-2,1-ethanediyl]]]bis-carbamic acid, C,C′-dimethyl ester, hydrochloride (1:2)]
- stability ([1]; 5±3° C.): stable
- stability ([1]; 25±2° C./60±5% RH): stable
- stability ([1]; 40±2° C./75±5% RH): stable

SMILES: COC(=O)N[C@H](C(=O)N1CCC[C@H]1c1nc(-c2ccc(-c3ccc(-c4c[nH]c([C@@H]5CCCN5C(=O)[C@@H](NC(=O)OC)C(C)C)n4)cc3)cc2)c[nH]1)C(C)C [form N-2, N,N′-[[1,1′-biphenyl]-4,4′-diylbis[1H-imidazole-5,2-diyl-(2S)-2,1-pyrrolidinediyl[(1S)-1-(1-methylethyl)-2-oxo-2,1-ethanediyl]]]bis-carbamic acid, C,C′-dimethyl ester, hydrochloride (1:2)]
- thermodynamic stability among polymorphs [2]: thermodynamically most stable polymorph

SMILES: COC(=O)N[C@H](C(=O)N1CCC[C@H]1c1nc(-c2ccc(-c3ccc(-c4c[nH]c([C@@H]5CCCN5C(=O)[C@@H](NC(=O)OC)C(C)C)n4)cc3)cc2)c[nH]1)C(C)C [form L1, N,N′-[[1,1′-biphenyl]-4,4′-diylbis[1H-imidazole-5,2-diyl-(2S)-2,1-pyrrolidinediyl[(1S)-1-(1-methylethyl)-2-oxo-2,1-ethanediyl]]]bis-carbamic acid, C,C′-dimethyl ester, hydrochloride (1:2)]
- polymorphic stability (conversion to any other polymorphic form) [3]: stable and do not get converted to any other polymorphic form
